Laboratory results reported in patent publication US20210161855A1, “5-LIPOXYGENASE ANTAGONISTS” (INSTITUTO DE MEDICINA MOLECULAR JOÃO LOBO ANTUNES, priority 2017, published 2021).

Assays:
TRPM8 = TRPM8 (Homo sapiens, UniProt Q7Z2W7); assay: TRPM8 channel antagonism, functional assay; format: cell-based; details: 150 μM
EP3 = molecular target: T1, EP3 (Homo sapiens, UniProt P43115); assay: Prostanoid EP3 receptor antagonism, functional assay; format: cell-based; details: 150 μM
T1 sequence (P43115 1-390): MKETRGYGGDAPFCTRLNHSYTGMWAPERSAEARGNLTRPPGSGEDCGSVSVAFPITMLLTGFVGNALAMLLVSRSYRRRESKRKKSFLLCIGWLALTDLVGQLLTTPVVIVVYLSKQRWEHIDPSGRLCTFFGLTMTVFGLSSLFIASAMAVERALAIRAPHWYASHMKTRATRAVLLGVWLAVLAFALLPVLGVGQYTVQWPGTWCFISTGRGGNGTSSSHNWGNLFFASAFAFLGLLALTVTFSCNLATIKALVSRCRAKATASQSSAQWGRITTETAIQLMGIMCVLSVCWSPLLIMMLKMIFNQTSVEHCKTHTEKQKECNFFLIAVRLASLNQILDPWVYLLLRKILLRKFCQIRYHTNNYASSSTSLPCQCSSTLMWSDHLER

EP4 = EP4 (Homo sapiens, UniProt P35408); assay: Prostanoid EP4 receptor antagonism, functional assay; format: cell-based; details: 150 μM
5-lipoxygenase (5-LO) = molecular target: T2, 5-lipoxygenase (5-LO) (Homo sapiens, UniProt P09917); assay: 5-LO inhibition assay, Method A (Cerep), cell-free functional; format: biochemical; details: 150 μM; read-out: 5-LO inhibition at the assayed concentration
T2 sequence (P09917 1-674): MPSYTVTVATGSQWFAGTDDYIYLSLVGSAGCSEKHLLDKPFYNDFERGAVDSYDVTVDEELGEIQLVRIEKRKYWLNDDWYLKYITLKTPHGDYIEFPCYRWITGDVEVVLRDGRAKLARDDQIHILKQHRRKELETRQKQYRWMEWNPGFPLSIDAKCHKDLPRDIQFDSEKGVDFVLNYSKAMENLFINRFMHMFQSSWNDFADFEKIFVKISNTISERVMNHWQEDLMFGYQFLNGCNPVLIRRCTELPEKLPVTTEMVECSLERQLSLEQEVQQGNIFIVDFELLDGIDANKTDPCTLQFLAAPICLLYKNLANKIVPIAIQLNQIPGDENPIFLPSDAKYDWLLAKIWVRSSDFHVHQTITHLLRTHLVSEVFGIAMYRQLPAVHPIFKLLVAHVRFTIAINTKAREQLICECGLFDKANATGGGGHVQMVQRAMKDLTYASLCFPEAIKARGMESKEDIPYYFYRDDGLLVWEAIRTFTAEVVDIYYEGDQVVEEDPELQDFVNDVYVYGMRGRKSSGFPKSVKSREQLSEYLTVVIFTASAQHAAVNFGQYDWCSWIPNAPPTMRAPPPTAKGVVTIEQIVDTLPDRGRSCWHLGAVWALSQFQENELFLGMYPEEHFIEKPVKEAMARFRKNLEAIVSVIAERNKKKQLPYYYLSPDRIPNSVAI
Description: Method A: 5-Lipoxygenase (5-LO), 12-lipoxygenase (12-LO) and 15-lipoxygenase-2 (15-LO-2) inhibition assays were performed at Cerep, SA (Celle l'Evescault, France) on a fee-for-service basis (Ref 0772^36, 0883^37 and 0893^38, respectively), as described in Table 1.

TRPV1 = TRPV1 (Homo sapiens, UniProt Q8NER1); assay: TRPV1 channel antagonism, functional assay; format: cell-based; details: 150 μM
5-LO = molecular target: T3, 5-LO (Homo sapiens, UniProt P09917); assay: 5-LO activity in neutrophil homogenates; format: biochemical; parameters: endogenous in cells; host or cells: neutrophils isolated from peripheral blood of healthy adult volunteers; intact or sonicated homogenates; details: neutrophil homogenates, with or without 1 mM DTT
T3 sequence (P09917 1-674): T2 sequence (P09917 1-674)
Description: Peripheral blood (University Hospital Jena, Germany) was withdrawn from healthy adult volunteers with consent that had not taken any anti-inflammatory drugs during the last 10 days, by venipuncture in heparinized tubes (16 IE heparin/mL blood). The blood was centrifuged at 4000 g for 20 min at 20° C. for preparation of leukocyte concentrates. Leukocyte concentrates were then subjected to dextran sedimentation and centrifugation on lymphocyte separation medium (LSM 1077, PAA, Colbe, Germany). Contaminating erythrocytes of pelleted neutrophils were removed by hypotonic Iysis. Neutrophils were then washed twice in ice-cold PBS and finally resuspended in PBS pH 7.4 containing 1 mg/mL glucose or in PBS pH 7.4 containing 1 mg/mL glucose plus 1 mM CaCl2 (PGC buffer) (purity>96-97%).
For analysis of 5-LO product formation in corresponding homogenates, neutrophils were resuspended in PBS containing 1 mM EDTA for 5 min at 4° C. and sonicated (4×10 s, 4° C.). Homogenates, corresponding to 5×10^6 cells/mL, were incubated with the test compounds or vehicle (0.1% DMSO) with or without 1 mM DTT for 15 min at 4° C., pre-warmed for 30 s at 37° C., and the reaction was started by the addition of 2 mM CaCl2 plus the indicated concentrations of AA (routinely 20 μM). The reaction was stopped after 10 min and the samples were analyzed as described for intact cells above.
Data are expressed as mean±S.E.M. IC50 values were calculated from averaged measurements at 6 different concentrations of the compound by nonlinear regression using GraphPad Prism software (San Diego, Calif.) one site binding competition. Statistical evaluation of the data was performed by one-way ANOVA followed by a Tukey-Kramer post-hoc test for multiple comparisons respectively. A p value<0.05 (*) was considered significant.

TRPV1, sequence (Q8NER1 whole entry, species assumed): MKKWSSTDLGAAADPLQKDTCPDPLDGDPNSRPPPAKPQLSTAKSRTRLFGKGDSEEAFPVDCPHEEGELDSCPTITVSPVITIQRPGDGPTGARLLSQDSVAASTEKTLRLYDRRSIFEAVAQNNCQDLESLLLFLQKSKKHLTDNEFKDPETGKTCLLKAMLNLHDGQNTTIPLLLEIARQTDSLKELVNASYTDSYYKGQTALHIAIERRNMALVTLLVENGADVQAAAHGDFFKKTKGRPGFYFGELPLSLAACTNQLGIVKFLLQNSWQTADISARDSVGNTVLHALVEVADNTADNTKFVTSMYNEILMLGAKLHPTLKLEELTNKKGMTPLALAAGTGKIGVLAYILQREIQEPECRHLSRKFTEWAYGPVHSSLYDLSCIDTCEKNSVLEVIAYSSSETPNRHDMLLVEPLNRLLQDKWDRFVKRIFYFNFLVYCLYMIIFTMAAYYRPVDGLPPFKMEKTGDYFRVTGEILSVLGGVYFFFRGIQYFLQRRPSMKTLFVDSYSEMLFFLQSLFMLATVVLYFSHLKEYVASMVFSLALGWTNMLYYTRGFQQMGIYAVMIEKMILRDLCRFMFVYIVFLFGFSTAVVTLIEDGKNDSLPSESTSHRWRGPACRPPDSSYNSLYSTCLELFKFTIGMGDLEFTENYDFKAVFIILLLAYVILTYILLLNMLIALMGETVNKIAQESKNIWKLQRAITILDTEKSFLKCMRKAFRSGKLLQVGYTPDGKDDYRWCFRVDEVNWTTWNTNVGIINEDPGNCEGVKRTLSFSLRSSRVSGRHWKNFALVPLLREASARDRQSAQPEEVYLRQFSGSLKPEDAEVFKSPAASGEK
EP4, sequence (P35408 whole entry): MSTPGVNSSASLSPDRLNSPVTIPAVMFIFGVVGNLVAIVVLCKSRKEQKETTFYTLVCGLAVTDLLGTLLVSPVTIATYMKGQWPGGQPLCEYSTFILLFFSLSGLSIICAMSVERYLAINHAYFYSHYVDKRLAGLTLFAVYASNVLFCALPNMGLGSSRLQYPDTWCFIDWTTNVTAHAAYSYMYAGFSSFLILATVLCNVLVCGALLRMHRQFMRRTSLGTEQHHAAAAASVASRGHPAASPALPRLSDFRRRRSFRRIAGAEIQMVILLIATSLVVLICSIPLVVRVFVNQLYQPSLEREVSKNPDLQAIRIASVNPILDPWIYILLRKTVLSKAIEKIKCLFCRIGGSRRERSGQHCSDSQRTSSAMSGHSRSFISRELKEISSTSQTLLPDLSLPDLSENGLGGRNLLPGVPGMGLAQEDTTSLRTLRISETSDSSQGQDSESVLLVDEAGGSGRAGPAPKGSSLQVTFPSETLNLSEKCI
TRPM8, sequence (Q7Z2W7 whole entry, species assumed): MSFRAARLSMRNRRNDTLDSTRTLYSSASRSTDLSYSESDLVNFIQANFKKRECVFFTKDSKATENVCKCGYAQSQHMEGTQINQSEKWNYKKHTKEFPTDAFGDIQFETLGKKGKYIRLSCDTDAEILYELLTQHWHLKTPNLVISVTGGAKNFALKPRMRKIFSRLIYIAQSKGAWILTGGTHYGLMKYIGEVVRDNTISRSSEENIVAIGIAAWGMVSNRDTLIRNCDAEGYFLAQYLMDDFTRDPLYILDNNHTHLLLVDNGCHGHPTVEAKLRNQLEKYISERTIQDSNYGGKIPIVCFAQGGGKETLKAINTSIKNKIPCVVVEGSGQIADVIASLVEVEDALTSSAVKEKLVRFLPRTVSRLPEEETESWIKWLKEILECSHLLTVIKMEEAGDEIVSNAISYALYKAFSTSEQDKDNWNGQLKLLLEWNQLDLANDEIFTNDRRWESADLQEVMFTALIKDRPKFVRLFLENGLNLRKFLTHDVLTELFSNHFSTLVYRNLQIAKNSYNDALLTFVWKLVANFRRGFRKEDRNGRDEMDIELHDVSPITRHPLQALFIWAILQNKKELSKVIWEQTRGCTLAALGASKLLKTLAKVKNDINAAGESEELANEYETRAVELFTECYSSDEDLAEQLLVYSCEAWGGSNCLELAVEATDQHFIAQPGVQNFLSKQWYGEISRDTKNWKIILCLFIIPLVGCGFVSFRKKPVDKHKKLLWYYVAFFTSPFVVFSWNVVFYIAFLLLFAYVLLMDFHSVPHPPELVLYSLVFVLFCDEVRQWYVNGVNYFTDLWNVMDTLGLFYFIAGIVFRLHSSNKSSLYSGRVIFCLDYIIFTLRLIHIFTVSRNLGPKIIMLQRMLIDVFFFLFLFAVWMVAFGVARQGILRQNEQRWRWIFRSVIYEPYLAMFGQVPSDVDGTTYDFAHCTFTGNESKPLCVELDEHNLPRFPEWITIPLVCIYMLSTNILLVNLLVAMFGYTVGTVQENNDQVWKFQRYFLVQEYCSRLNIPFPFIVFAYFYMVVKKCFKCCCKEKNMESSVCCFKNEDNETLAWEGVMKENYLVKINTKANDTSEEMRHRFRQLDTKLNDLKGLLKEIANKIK

Row | Compound | TRPM8 antagonist effect (TRPM8) [%] | EP3 antagonist effect (EP3) [%] | EP4 antagonist effect (EP4) [%] | inhibition at 150 µM (5-lipoxygenase (5-LO)) [%] | TRPV1 antagonist effect (TRPV1) [%] | Dependence of inhibition on DTT (5-LO)
1 | CC(C)=CCC1=C(O)C(=O)c2ccccc2C1=O [Compound 2, 2-hydroxy-3-(3′-methyl-2′-butenyl)-1,4-naphthoquinone] | 91 | 50 | 56 | 87 | 65 | –
2 | CC(c1cc2ccccc2s1)N(O)C(N)=O (stereo not drawn) [zileuton, reference compound] | – | – | – | – | – | independent of DTT
